In patent US20030171218A1, “Substituted 3-heteroaryl(amino- or oxy)pyrrolidin-2-ones, their preparation and use as herbicides or plant growth regulators” (priority 2001, published 2003):

What was measured:
[1] = system: weed plants such as Digitaria sanguinalis, Echinochloa crus-galli, Setaria faberi, Setaria viridis, Sorghum halepense, Abutilon theophrasti, Amaranthum …; assay: Pre-emergence effect on weeds (greenhouse pot test); format: in vivo, monocotyledonous and dicotyledonous weed plants; conditions: application rate of 1 kg or less of active substance per hectare; scored visually after 3 to 4 weeks by comparison with untreated controls
Text: Seeds or rhizome pieces of monocotyledonous and dicotyledonous weed plants are placed in sandy loam soil in plastic pots and covered with soil. The compounds according to the invention which are formulated in the form of wettable powders or emulsion concentrates are then applied to the surface of the soil cover in the form of aqueous suspensions or emulsions at an application rate of 600 to 800 l of water/ha (converted), in various dosages.
After the treatment, the pots are placed in a greenhouse and kept under good growth conditions for the weeds. After the test plants have emerged, the damage to the plants or the negative effect on the emergence is scored visually after a test period of 3 to 4 weeks by comparison with untreated controls. As shown by the test results, compounds according to the invention have good herbicidal pre-emergence activity against a broad spectrum of weed grasses and broad-leafed weeds.

[2] = system: harmful plants such as Digitaria sanguinalis, Echinochloa crus-galli, Setaria faberi, Setaria viridis, Sorghum halepense, Abutilon theophrasti, Amaranthum …; assay: Post-emergence effect on weeds (greenhouse pot test); format: in vivo, monocotyledonous and dicotyledonous weeds; conditions: application rate of 1 kg and less of active substance per hectare; treated at three-leaf stage; scored visually after about 3 to 4 weeks by comparison with untreated controls
Protocol: Seeds or rhizome pieces of monocotyledonous and dicotyledonous weeds are placed in sandy loam soil in plastic pots, covered with soil and grown in a greenhouse under good growth conditions. Three weeks after sowing, the test plants are treated at the three-leaf stage. The compounds according to the invention which were formulated as wettable powders or emulsion concentrates are sprayed, at various dosages, onto the green parts of the plants at an application rate of 600 to 800 l of water/ha (converted). After the test plants have remained in the greenhouse for about 3 to 4 weeks under optimum growth conditions, the effect of the preparations is scored visually by comparison with untreated controls. The agents according to the invention also have good herbicidal activity post-emergence against a broad spectrum of economically important weed grasses and broad-leafed weeds.

| SMILES | herbicidal activity pre-emergence [1] | herbicidal activity post-emergence [2] |
| --- | --- | --- |
| CC(F)c1nc(N)nc(OC2CCN(c3cccc(Cl)c3)C2=O)n1 (centres unmarked) [Example A43] | very good herbicidal activity | very good herbicidal activity |
| Cc1cccc(N2CCC(Oc3nc(N)nc(C(C)F)n3)C2=O)c1 (centres unmarked) [Example A38] | very good herbicidal activity | very good herbicidal activity |
| Cc1cc(C)cc(N2CCC(Oc3nc(N)nc(C(C)(C)F)n3)C2=O)c1 (centres unmarked) [Example A57] | very good herbicidal activity | very good herbicidal activity |
| CC(C)(F)c1nc(N)nc(OC2CCN(c3cccc(C(F)(F)F)c3)C2=O)n1 (centres unmarked) [Example A54] | very good herbicidal activity | very good herbicidal activity |
| CC(C)c1nc(N)nc(NC2CCN(c3cccc(C(F)(F)F)c3)C2)n1 (centres unmarked) [Example E21] | very good herbicidal activity | very good herbicidal activity |
| Cc1cc(C)cc(N2CCC(Nc3nc(N)nc(C(C)(C)F)n3)C2)c1 (centres unmarked) [Example E25] | very good herbicidal activity | very good herbicidal activity |
| Cc1cccc(N2CCC(Nc3nc(N)nc(C(C)(C)F)n3)C2)c1 (centres unmarked) [Example E7] | very good herbicidal activity | very good herbicidal activity |
| CC(F)c1nc(N)nc(NC2CCN(c3ccccc3)C2=O)n1 (centres unmarked) [Example A11] | very good herbicidal activity | very good herbicidal activity |
| CC(F)c1nc(N)nc(NC2CCN(c3cccc(OC(F)(F)F)c3)C2=O)n1 (centres unmarked) [Example A17] | very good herbicidal activity | very good herbicidal activity |
| CC(C)(F)c1nc(N)nc(OC2CCN(c3cccc(OC(F)(F)F)c3)C2=O)n1 (centres unmarked) [Example A60] | very good herbicidal activity | very good herbicidal activity |
| CC(F)c1nc(N)nc(N(C)C2CCN(c3cccc(Cl)c3)C2=O)n1 (centres unmarked) [Example A66] | very good herbicidal activity | very good herbicidal activity |
| CC(C)(F)c1nc(N)nc(NC2CCN(c3cccc(C(F)(F)F)c3)C2=O)n1 (centres unmarked) [Example A32] | very good herbicidal activity | very good herbicidal activity |
| CC(C)c1nc(N)nc(N(C)C2CCN(c3cccc(OC(F)(F)F)c3)C2=O)n1 (centres unmarked) [Example A75] | very good herbicidal activity | very good herbicidal activity |
| COc1cccc(N2CCC(Oc3nc(N)nc(C(C)(C)F)n3)C2=O)c1 (centres unmarked) [Example A59] | very good herbicidal activity | very good herbicidal activity |
| CC(C)(F)c1nc(N)nc(NC2CCN(c3cccc(Cl)c3)C2)n1 (centres unmarked) [Example E16] | very good herbicidal activity | very good herbicidal activity |
| CC(F)c1nc(N)nc(N(C)C2CCN(c3cccc(F)c3)C2=O)n1 (centres unmarked) [Example A69] | very good herbicidal activity | very good herbicidal activity |
| CN(c1nc(N)nc(C(C)(C)F)n1)C1CCN(c2cccc(C(F)(F)F)c2)C1 (centres unmarked) [Example E48] | very good herbicidal activity | very good herbicidal activity |
| CC(C)c1nc(N)nc(NC2CCN(c3cccc(OC(F)(F)F)c3)C2=O)n1 (centres unmarked) [Example A26] | very good herbicidal activity | very good herbicidal activity |
| CC(F)c1nc(N)nc(OC2CCN(c3cccc(F)c3)C2=O)n1 (centres unmarked) [Example A44] | very good herbicidal activity | very good herbicidal activity |
